The text below walks through data of patent publication US20250276972A1, “COMPOUNDS AS CASEIN KINASE INHIBITORS” (GRITSCIENCE BIOPHARMACEUTICALS CO.,LTD., priority 2020, published 2025).

The target in one data set is T1, CK1δ (Homo sapiens, UniProt P48730).
T1 construct: endogenous in cells; host or cells: Bmal1-dLuc or Per2-dLuc U2OS cells
As to the kind of experiment: CK1δ inhibition (EC50); Bmal1-dLuc or Per2-dLuc U2OS luminescence rhythm period assay. Type of data set: cell-based. The note with it: Table 3. On the procedure: Bmall-dLuc or Per2-dLuc U2OS cells were suspended in the culture medium (DMEM supplemented with 10% fetal bovine serum, 0.29 mg/mL L-glutamine, 100 units/mL penicillin, and […] streptomycin) and plated onto 96-well white solid-bottom plates at 200 μL (10,000 cells) per well. After 2 days, 100 μL of the explant medium (DMEM supplemented with 2% B27, 10 mM HEPES, 0.38 mg/mL sodium bicarbonate, 0.29 mg/mL L-glutamine, 100 units/mL penicillin, […], 0.1 mg/mL gentamicin, and 1 mM luciferin, pH 7.2) was dispensed to each well, followed by the application of 1 μL of a compound of the present application (dissolved in DMSO; final concentration was 0.7% in DMSO). The plate was covered with an optically clear film and set to microplate reader (Infinite M200, Tecan).

Data set [1] is described as follows: Intrinsic clearance in liver microsomes (human). Type of data set: in vitro ADME. The note with it: Human liver microsomes 0.5 mg/mL, 2 μM compound, 37° C.; for microsomal CLint at 2 μM: read-out: in vitro CLint (μL/min/mg protein); for half-life at 2 μM: read-out: in vitro t1/2. How it is done:
(§1) • 1. The master solution was prepared according to Table 5.
(§2) • 2. Three separated experiments were performed as follows. a) With NADPH: 10 μL of 20 mg/mL liver microsomes and 40 μL of 10 mM NADPH were added to the incubations. The final concentrations of microsomes and NADPH were 0.5 mg/mL and 1 mM, respectively. b) Without NADPH: 10 μL of 20 mg/mL liver microsomes and 40 μL of ultra-pure H2O were added to the incubations. The final concentration of microsomes was 0.5 mg/mL. c) Heat-inactivated microsomes without NADPH: 10 μL of 20 mg/mL heat-inactivated liver microsomes and 40 μL of ultra-pure H2O were added to the incubations. The final concentration of microsomes was 0.5 mg/mL. • 3. The reaction was started with the addition of 4 μL of 200 μM test compound solution or control compound solution at the final concentration of 2 μM and carried out at 37° C. • 4. Aliquots of 50 μL were taken from the reaction solution at 0, 15, 30, 45 and 60 min. […] Samples were centrifuged at 3, 220 g for 40 minutes. […] Data Analysis
(§3) Peak areas were determined from extracted ion chromatograms. The slope value, k, was determined by linear regression of the natural logarithm of the remaining percentage of the parent drug vs. incubation time curve.
(§4) The in vitro half-life (in vitro t1/2) was determined from the slope value:
(§5) Conversion of the in vitro t1/2 (min) into the in vitro intrinsic clearance (in vitro CLint, in μL/min/mg protein) was done using the following equation (mean of duplicate determinations): […]
For orientation: Liver microsomes are vesicles of endoplasmic reticulum, rich in cytochrome P450 enzymes.

The nature of data set [2]: Intrinsic clearance in liver microsomes (mouse). Type of data set: in vitro ADME. The following applies: Mouse liver microsomes 0.5 mg/mL, 2 μM compound, 37° C.; for microsomal CLint at 2 μM: read-out: in vitro CLint (μL/min/mg protein); for half-life at 2 μM: read-out: in vitro t1/2. How it is done: as §1, §2, §3, §4, §5
The next data set addresses wild type CK1δ (Homo sapiens, UniProt P48730). Description: CK1δ kinase assay (Kinase-Glo). Type of data set: biochemical. The note with it: 10 μM ATP, 2 nM wild type CK1δ, 85 min at 25° C. How it is done: The reaction mixture was incubated for 85 min at 25° C.; detection was carried out as described for the Kinase-Glo Assay (Promega). Luminescent output was measured on the Perkin Elmer Envision plate reader (PerkinElmer, Waltham, MA).
Background: In Kinase-Glo more light means more ATP remaining.

T1 sequence (P48730 whole entry): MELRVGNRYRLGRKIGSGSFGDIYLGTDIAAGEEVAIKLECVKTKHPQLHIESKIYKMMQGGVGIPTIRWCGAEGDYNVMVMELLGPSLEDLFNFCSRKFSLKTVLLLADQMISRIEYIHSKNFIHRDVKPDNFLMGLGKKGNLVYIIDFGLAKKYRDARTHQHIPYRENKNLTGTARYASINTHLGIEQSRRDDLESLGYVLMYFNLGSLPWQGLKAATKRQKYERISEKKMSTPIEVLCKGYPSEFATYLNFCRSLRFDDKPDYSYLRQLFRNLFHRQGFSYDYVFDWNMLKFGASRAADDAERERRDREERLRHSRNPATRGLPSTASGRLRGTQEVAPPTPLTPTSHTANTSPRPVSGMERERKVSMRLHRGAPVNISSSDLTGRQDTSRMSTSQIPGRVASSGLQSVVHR
wild type CK1δ, sequence (P48730 whole entry): as above

The EC50 is the midpoint of the concentration-response curve. Read a low EC50 as higher potency in that assay. Regarding `CC(=O)N1CCn2nc(-c3ccc(F)cc3)c(-c3ccnc(NCC(F)(F)F)c3)c2C1` [Compound I-96, 1-(2-(4-fluorophenyl)-3-(2-((2,2,2-trifluoroethyl)amino)pyridin-4-yl)-6,7-dihydropyrazolo [1,5-a]pyrazin-5(4H)-yl)ethan-1-one], the EC50 at CK1δ is 4500 nM. Besides, the microsomal CLint at 2 μM came out at 3.74 µL/min/mg in data set [1] and 10 µL/min/mg in data set [2]. Also, the half-life at 2 μM in data set [1] is 370 min; in data set [2], 138 min.
In the same order, the values of `CC(=O)Nc1cc(-c2c(-c3ccc(F)cc3)nn3c2CN(CCF)CC3)ccn1` [Compound I-42, N-(4-(5-(2-fluoroethyl)-2-(4-fluorophenyl)-4,5,6,7-tetrahydropyrazolo[1,5-a]pyrazin-3-yl)pyridin-2-yl)acetamide] are 400 nM, 47.4 µL/min/mg, 975 µL/min/mg, 29.2 min and 1.42 min.
For `CC(=O)Nc1cc(-c2c(-c3ccc(F)cc3)nn3c2CN(C2CCC2)CC3)ccn1` [Compound I-33, N-(4-(5-cyclobutyl-2-(4-fluorophenyl)-4,5,6,7-tetrahydropyrazolo[1,5-a]pyrazin-3-yl)pyridin-2-yl)acetamide], at CK1δ, a half-maximal effect (EC50) was put at 500 nM. Also, the microsomal CLint at 2 μM was 274 µL/min/mg in data set [1] and 1040 µL/min/mg in data set [2]. The half-life at 2 μM in data set [1] came out at 5.06 min; in data set [2], 1.33 min.
In the same order, the values of `CC(=O)N1CCn2nc(-c3ccc(F)cc3)c(-c3ccnc(NC(=O)C(C)c4ccc(F)cc4)c3)c2C1` (stereo not shown) [Compound I-82, N-(4-(5-acetyl-2-(4-fluorophenyl)-4,5,6,7-tetrahydropyrazolo[1,5-a]pyrazin-3-yl)pyridin-2-yl)-2-(4-fluorophenyl)propanamide] are 100 nM, 16.5 µL/min/mg, 453 µL/min/mg, 84.1 min and 3.06 min.
In the same order, the values of `CC(C)C(=O)Nc1cc(-c2c(-c3ccc(F)cc3)nn3c2CN(C)CC3)ccn1` [Compound I-102, N-(4-(2-(4-fluorophenyl)-5-methyl-4,5,6,7-tetrahydropyrazolo[1,5-a]pyrazin-3-yl)pyridin-2-yl)isobutyramide] are 700 nM, 29.9 µL/min/mg, 611 µL/min/mg, 46.4 min and 2.27 min.
In the same order, the values of `CCC(=O)Nc1cc(-c2c(-c3ccc(F)cc3)nn3c2CN(C)CC3)ccn1` [Compound I-103, N-(4-(2-(4-fluorophenyl)-5-methyl-4,5,6,7-tetrahydropyrazolo[1,5-a]pyrazin-3-yl)pyridin-2-yl)propionamide] are 500 nM, 49.8 µL/min/mg, 679 µL/min/mg, 27.8 min and 2.04 min.
The IC50 is the concentration that inhibits the measured activity by half. Lower therefore signals inhibition by little substance. `CC(=O)N1CCn2nc(-c3ccc(F)cc3)c(-c3cc(N)ncn3)c2C1` [Compound I-63, 1-(3-(6-aminopyrimidin-4-yl)-2-(4-fluorophenyl)-6,7-dihydropyrazolo[1,5-a]pyrazin-5(4H)-yl)ethan-1-one]: the IC50 at wild type CK1δ was found to be 28900 nM.
On to `CCC(C)C(=O)Nc1cc(-c2c(-c3ccc(F)cc3)nn3c2CN(C)CC3)ccn1` (stereo not shown) [Compound I-100, N-(4-(2-(4-fluorophenyl)-5-methyl-4,5,6,7-tetrahydropyrazolo[1,5-a]pyrazin-3-yl)pyridin-2-yl)-2-methylbutanamide], for which the EC50 at CK1δ was found to be 600 nM. Also, in data set [1], the microsomal CLint at 2 μM stood at 68.2 µL/min/mg and the half-life at 2 μM was 20.3 min. In data set [2], the microsomal CLint at 2 μM is 465 µL/min/mg and the half-life at 2 μM worked out at 2.98 min.
As to `Cc1cc(-c2c(-c3ccc(F)cc3)nn3c2CN(CCO)CC3)ccn1` [Compound I-11, 2-(2-(4-fluorophenyl)-3-(2-methylpyridin-4-yl)-6,7-dihydropyrazolo[1,5-a]pyrazin-5. (4H)-yl)ethan-1-ol], in data set [1], the microsomal CLint at 2 μM was found to be 8.74 µL/min/mg and the half-life at 2 μM is 159 min. For the same compound, in data set [2], the microsomal CLint at 2 μM turned out to be 16.3 µL/min/mg and the half-life at 2 μM was determined as 84.9 min.
With `[2H]C([2H])([2H])c1cc(-c2c(-c3ccc(F)cc3)nn3c2CN(C(=O)CCN(C)C)CC3)ccn1` [Compound I-134, 3-(dimethylamino)-1-(2-(4-fluorophenyl)-3-(2-(methyl-d3)pyridin-4-yl)-6,7-dihydropyrazolo[1,5-a]pyrazin-5(4H)-yl)propan-1-one], inhibition at wild type CK1δ was half-maximal at 1790 nM (IC50).
`COCCN1CCn2nc(-c3ccc(F)cc3)c(-c3ccnc(NC(C)=O)c3)c2C1` [Compound I-40, N-(4-(2-(4-fluorophenyl)-5-(2-methoxyethyl)-4,5,6.7-tetrahydropyrazolo[1,5-a]pyrazin-3-yl)pyridin-2-yl)acetamide]: on CK1δ, it took 700 nM to reach a half-maximal effect (EC50). Further, in data set [1], the microsomal CLint at 2 μM came to 52.5 µL/min/mg and the half-life at 2 μM amounted to 26.4 min. Moreover, in data set [2], the microsomal CLint at 2 μM came to 532 µL/min/mg and the half-life at 2 μM amounted to 2.61 min.
In the same order, the values of `CN1CCn2nc(-c3ccc(F)cc3)c(-c3ccnc(NC(=O)Cc4ccc(F)cc4)c3)c2C1` [Compound I-80, 2-(4-fluorophenyl)-N-(4-(2-(4-fluorophenyl)-5-methyl-4,5,6,7-tetrahydropyrazolo [1,5-a]pyrazin-3-yl)pyridin-2-yl)acetamide] are 100 nM, 112 µL/min/mg, 12.3 min, 552 µL/min/mg and 2.51 min.
For the compound `Cc1cc(-c2c(-c3ccc(F)cc3)nn3c2CN(Cc2ncccn2)CC3)ccn1` [Compound I-9, 2-(4-fluorophenyl)-3-(2-methylpyridin-4-y)-5-(pyrimidin-2-ylmethyl)-4,5,6,7-tetrahydropyrazolo[1,5-a]pyrazine], in data set [1], the microsomal CLint at 2 μM worked out at 12.4 µL/min/mg and the half-life at 2 μM is 112 min. In data set [2], the microsomal CLint at 2 μM was found to be 43.4 µL/min/mg and the half-life at 2 μM amounted to 31.9 min.
For the compound `CC(=O)N1CCn2nc(-c3ccc(F)cc3)c(-c3ccnc(NC(=O)C4(c5ccc(F)cc5)CC4)c3)c2C1` [Compound I-77, N-(4-(5-acetyl-2-(4-fluorophenyl)-4,5,6,7-tetrahydropyrazolo[1,5-a]pyrazin-3-yl)pyridin-2-yl)-1-(4-fluorophenyl)cyclopropane-1-carboxamide], the EC50 at CK1δ is 2000 nM. For the same compound, in data set [1], the microsomal CLint at 2 μM was 25.2 µL/min/mg and the half-life at 2 μM was 55 min. In data set [2], the microsomal CLint at 2 μM came out at 152 µL/min/mg and the half-life at 2 μM is 9.14 min.
In the same order, the values of `CN1CCn2nc(-c3ccc(F)cc3)c(-c3ccnc(NC(=O)C4CC4)c3)c2C1` [Compound I-89, N-(4-(2-(4-fluorophenyl)-5-methyl-4,5,6,7-tetrahydropyrazolo[1,5-a]pyrazin-3-yl)pyridin-2-yl)cyclopropanecarboxamide] are 700 nM, 94.3 µL/min/mg, 14.7 min, 665 µL/min/mg and 2.09 min.
On to `CC(=O)Nc1cc(-c2c(-c3ccc(F)cc3)nn3c2CN(C2CC(O)C2)CC3)ccn1` (stereo not shown) [Compound I-44, N-(4-(2-(4-fluorophenyl)-5-(3-hydroxycyclobutyl)-4,5,6,7-tetrahydropyrazolo[1,5-a]pyrazin-3-yl)pyridin-2-yl)acetamide], for which the EC50 on CK1δ was determined as 800 nM. In data set [1], the microsomal CLint at 2 μM worked out at 4.98 µL/min/mg and the half-life at 2 μM was 278 min. In addition, in data set [2], the microsomal CLint at 2 μM was determined as 20.5 µL/min/mg and the half-life at 2 μM came out at 67.5 min.
